According to article PMC6098951, “Design and synthesis of new esters of terpenoid alcohols as 15-lipoxygenase inhibitors” (Iranian Journal of Basic Medical Sciences, 2018):
Where two headings read alike, the source gives them in different places.

Columns and labels:
[1] = molecular target: T1, SLO (soybean 15-lipoxygenase: L1; EC 1,13,11,12) (Glycine max, UniProt P08170); assay: 15-lipoxygenase inhibitory assessment (peroxide formation method); format: biochemical; conditions: for IC50: SLO
T1 sequence (P08170 1-839): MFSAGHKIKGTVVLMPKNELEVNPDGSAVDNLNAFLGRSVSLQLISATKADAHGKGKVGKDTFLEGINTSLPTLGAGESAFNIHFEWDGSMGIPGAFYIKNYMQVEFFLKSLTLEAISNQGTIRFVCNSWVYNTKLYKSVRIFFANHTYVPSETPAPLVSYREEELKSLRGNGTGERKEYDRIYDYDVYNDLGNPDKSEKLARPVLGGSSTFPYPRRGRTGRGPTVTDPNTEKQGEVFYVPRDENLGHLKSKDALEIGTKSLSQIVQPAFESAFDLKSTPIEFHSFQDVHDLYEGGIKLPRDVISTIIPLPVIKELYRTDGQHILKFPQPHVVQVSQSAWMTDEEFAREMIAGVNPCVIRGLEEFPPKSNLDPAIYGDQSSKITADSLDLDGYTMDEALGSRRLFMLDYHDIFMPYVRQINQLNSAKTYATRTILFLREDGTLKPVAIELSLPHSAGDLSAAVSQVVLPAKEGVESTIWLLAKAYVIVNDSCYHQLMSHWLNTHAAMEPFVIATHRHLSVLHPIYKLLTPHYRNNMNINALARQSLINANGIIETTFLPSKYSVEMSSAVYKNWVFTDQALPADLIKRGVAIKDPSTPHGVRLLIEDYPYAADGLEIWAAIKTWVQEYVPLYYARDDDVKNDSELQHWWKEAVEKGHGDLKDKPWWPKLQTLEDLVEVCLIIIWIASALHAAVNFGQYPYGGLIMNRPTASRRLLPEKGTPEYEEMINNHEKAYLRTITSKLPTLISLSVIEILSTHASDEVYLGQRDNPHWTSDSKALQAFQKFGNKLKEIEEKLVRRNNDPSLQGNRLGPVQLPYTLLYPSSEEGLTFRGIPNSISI
Protocol: Linoleic acid and two assay solutions (A and B) were prepared in advance. Solution A was 50 mM (3-dimethylaminobenzoic acid) (DMAB) in l00 mM phosphate buffer (pH 7.0). Solution B was a mixture of l0 mM (3-methyl-2-benzothiazolonhydrazone) (MBTH) (3 ml), hemoglobin (5 mg/ml, 3 ml) in 50 mM phosphate buffer at pH 5.0 (25 ml). A linoleic acid solution was prepared by mixing 5 mg of linoleic acid with 0.5 ml ethanol and then diluting with KOH 100 mM to a final volume of 5 ml. In the standard assay, the sample in ethanol (25 µl), SLO (4,000 units/ml in 50 mM phosphate buffer pH 7.0; 25 µl), and phosphate buffer pH 7.0 (50 mM; 900 µl) were mixed in a test tube, and pre-incubation was carried out for 5 min at room temperature. A control test was performed with the same volume of ethanol. After pre-incubation, linoleic acid solution (50 µl) was added to start the peroxidation reaction, and, 7 min later, solution A (270 µl) and then solution B (130 µl) were added to start the color formation. Further, 5 min later, 200 µl of a 2 % sodium dodecyl sulfate (SDS) solution was added to terminate the reaction. The absorbance at 598 nm was compared to control test.
The inhibitory activity of all synthetic compounds against SLO (soybean 15-lipoxygenase: L1; EC 1,13,11,12) was determined using the peroxide formation method ([13], [14]). In this method, the basis of evaluation of lipoxygenase activity is measuring the concentration of fatty acid peroxide. All measurements were compared with 4-methyl-2-(4-methylpiperazinyl)pyrimido[4,5-b]benzothiazine (4-MMPB), one of the known lipoxygenase inhibitors (Table 1).

[2] = DPPH bleaching (radical scavenging); conditions: 25 μM DPPH in ethanol, 30 min at room temperature, absorbance 517 nm; ± SEM
Protocol: DPPH solution (25 μM) in absolute ethanol was prepared. […] Ethanol was used as control solution. After 30 min at room temperature, the absorbance was recorded at 517 nm.
The radical scavenging ability of all synthetic compounds using stable free radicals (DPPH: 2,2-diphenyl-
1-picrylhydrazyl) has been previously measured (Table 1) ([15]). In this assessment, the DPPH bleaching potency of the synthetic compounds has been reported as IC50 values.

[3] = linoleic acid substrate, pH 7.0, absorbance 598 nm, ± SEM, read-out: Lipoxygenase inhibition IC50
[4] = read-out: IC50 inhibitory activity against soybean 15-lipoxygenase (abstract)

## COc1cc(C(=O)O[C@H]2C3(C)CCC(C3)C2(C)C)ccc1O (stereo partly drawn) [2a, (2S)-1,3,3-trimethylbicyclo[2.2.1]heptan-2-yl 4-hydroxy-3-methoxybenzoate]
[1]; [3]
  IC50: 40.1 ± 2.2 µM
[2]
  IC50: > 500 µM
other
  melting point: 120 to 122 °C

## CC12CCC(C1)C(C)(C)[C@H]2OC(=O)c1ccc(O)c(O)c1 (stereo partly drawn) [2b, (2S)-1,3,3-trimethylbicyclo[2.2.1]heptan-2-yl 3,4-dihydroxybenzoate]
[1]; [3]
  IC50: 1.68 ± 0.61 µM
[2]
  IC50: 10 ± 1 µM
other
  melting point: 58 to 61 °C

## COc1cccc(C(=O)O[C@H]2C3(C)CCC(C3)C2(C)C)c1 (stereo partly drawn) [2c, (2S)-1,3,3-trimethylbicyclo[2.2.1]heptan-2-yl 3-methoxybenzoate]
[1]; [3]
  IC50: > 500 µM
[2]
  IC50: > 500 µM

## COc1ccc(C(=O)O[C@H]2C3(C)CCC(C3)C2(C)C)cc1OC (stereo partly drawn) [2d, (2S)-1,3,3-trimethylbicyclo[2.2.1]heptan-2-yl 3,4-dimethoxybenzoate]
[1]; [3]
  IC50: > 500 µM
[2]
  IC50: > 500 µM

## CC12CCC(C1)C(C)(C)[C@H]2OC(=O)c1cc(O)c(O)c(O)c1 (stereo partly drawn) [2e, (2S)-1,3,3-trimethylbicyclo[2.2.1]heptan-2-yl 3,4,5-trihydroxybenzoate]
[1]; [3]
  IC50: 1.71 ± 0.41 µM
[2]
  IC50: 3.46 ± 0.33 µM
other
  melting point: 171 to 173 °C

## COc1cc(/C=C/C(=O)O[C@H]2C3(C)CCC(C3)C2(C)C)ccc1O (stereo partly drawn) [2f, (2S)-1,3,3-trimethylbicyclo[2.2.1]heptan-2-yl(E)-3-(4-hydroxy-3-methoxyphenyl)acrylate]
[1]; [3]
  IC50: 194 ± 11.3 µM
[2]
  IC50: > 500 µM

## CC12CCC(C1)C(C)(C)[C@H]2OC(=O)/C=C/c1ccc(O)c(O)c1 (stereo partly drawn) [2g, (2S)-1,3,3-trimethylbicyclo[2.2.1]heptan-2-yl (E)-3-(3,4-dihydroxyphenyl)acrylate]
[1]; [3]
  IC50: 1.67 ± 0.22 µM
[2]
  IC50: 10.9 ± 1.1 µM

## COc1cc(C(=O)O[C@@H]2CC3CCC2(C)C3(C)C)ccc1O (stereo partly drawn) [2h, (2R)-1,7,7-trimethylbicyclo[2.2.1]heptan-2-yl 4-hydroxy-3-methoxybenzoate]
[1]; [3]
  IC50: 273 ± 11.3 µM
[2]
  IC50: > 500 µM

## COc1cc(C(=O)OC23CC4CC(CC(C4)C2)C3)ccc1O [2i, (3s,5s,7s)-adamantan-1-yl 4-hydroxy-3-methoxy benzoate]
[1]; [3]
  IC50: 164 ± 13.2 µM
[2]
  IC50: > 500 µM
other
  melting point: 136 to 139 °C

## O=C(OC12CC3CC(CC(C3)C1)C2)c1ccc(O)c(O)c1 [2j, (3s,5s,7s)-adamantan-1-yl 3,4-dihydroxybenzoate]
[1]; [4]
  IC50: 0.95 µM
[2]
  IC50: 9.1 ± 0.79 µM
other
  melting point: 170 to 173 °C

## O=C(OC12CC3CC(CC(C3)C1)C2)c1cc(O)c(O)c(O)c1 [2k, (3s,5s,7s)-adamantan-1-yl 3,4,5-trihydroxybenzoate]
[1]; [3]
  IC50: 2.28 ± 0.1 µM
[2]
  IC50: 4.5 ± 0.19 µM
other
  melting point: 195 to 199 °C

## O=C(/C=C/c1ccc(O)c(O)c1)OC12CC3CC(CC(C3)C1)C2 [2l, (3s,5s,7s)-adamantan-1-yl (E)-3-(3,4-dihydroxyphenyl) acrylate]
[1]; [3]
  IC50: 3.9 ± 0.61 µM
[2]
  IC50: 18 ± 1.9 µM
other
  melting point: 191 to 196 °C

## O=C(OCC12CC3CC(CC(C3)C1)C2)c1ccc(O)c(O)c1 [2m, (3r,5r,7r)-adamantan-1-yl)methyl 3,4-dihydroxybenzoate]
[1]; [3]
  IC50: 3.57 ± 0.19 µM
[2]
  IC50: 10.8 ± 0.67 µM
other
  melting point: 212 to 217 °C

## O=C(/C=C/c1ccc(O)c(O)c1)OCC12CC3CC(CC(C3)C1)C2 [2n, ((3r,5r,7r)-adamantan-1-yl)methyl(E)-3-(3,4-dihydroxyphenyl)acrylate]
[1]; [3]
  IC50: 2.7 ± 0.13 µM
[2]
  IC50: 5.98 ± 0.53 µM
other
  melting point: 161 to 164 °C

## CC1(C)C2CCC1(C)[C@H](OC(=O)c1ccc(O)c(O)c1)C2 (stereo partly drawn) [2o, (2R)-1,7,7-trimethylbicyclo[2.2.1]heptan-2-yl 3,4-dihydroxybenzoate]
[1]; [4]
  IC50: 0.78 µM
[2]
  IC50: 9.4 ± 0.81 µM
other
  melting point: 40 to 42 °C

## CCOC(=O)c1ccc(O)c(O)c1 [2p, ethyl catechuate]
[1]; [3]
  IC50: 6.5 ± 0.53 µM
[1]; lipoxygenase inhibition IC50 compared with 2b
  fold less inhibitory potency versus 2b: about 5 fold
[2]
  IC50: 9.2 ± 0.45 µM

## O=C(NC12CC3CC(CC(C3)C1)C2)c1ccc(O)c(O)c1 [3a', N-((3s,5s,7s)-adamantan-1-yl)-3,4-dihydroxybenzamide]
[1]; [3]
  IC50: 5.4 ± 0.55 µM
[2]
  IC50: 6.5 ± 0.43 µM
other
  melting point: 209 to 211 °C

## COc1cc(/C=C/C(=O)NC23CC4CC(CC(C4)C2)C3)ccc1O [3b', (E)-N-((3s,5s,7s)-adamantan-1-yl)-3-(4-hydroxy-3-methoxyphenyl)acrylamide]
[1]; [3]
  IC50: 188 ± 14 µM
[2]
  IC50: 5.05 ± 4.08 µM
other
  melting point: 130 to 132 °C

## Cc1nc(N2CCN(C)CC2)nc2c1Sc1ccccc1N2 [4-MMPB, 4-methyl-2-(4-methylpiperazinyl)pyrimido[4,5-b]benzothiazine, reference compound]
[1]; [3]
  IC50: 38.5 ± 1.97 µM
[2]
  IC50: 17.1 ± 2 µM
